Assay results as given in patent EP0596449A2, “Serotonin receptor antagonists for treating myocardial ischemia” (E.R. SQUIBB & SONS, INC., priority 1992, dated 1994).
Marks after values point to notes of the source that are not given here.

Test system: globally ischemic, isolated rat hearts
Assay: Effect of 5HT, alone or with 5HT2 antagonist, on time to contracture and pre-ischemic function in isolated rat hearts
Details: for Coronary Flow / HR / LVDP: 30 μM 5HT + 3 μM Ketanserin, pre-ischemic; for effect on the pro-ischemic effect of 5HT (time to contracture): 30 µM 5HT plus antagonist, both given 10 minutes before ischemia, Figure 3
Method: To determine the effect of serotonin receptor agonists and antagonists, male Sprague-Dawley rats (450-550 g) were prepared as described below. The rats were anesthetized using 100 mg/kg sodium pentobarbital (i.p.). They were intubated and then treated with i.v. heparin (1000 U/kg). While being mechanically ventilated, their hearts were perfused in situ via retrograde cannulation of the aorta. […] A water-filled latex balloon attached to a metal cannula was then inserted into the left ventricle and connected to a Statham pressure transducer for measurement of left ventricular pressure. […] Pre-ischemia or pre-drug function, heart rate and coronary flow (extracorporeal electromagnetic flow probe) were then measured. Left ventricular developed pressure (LVDP) was calculated from the difference between left ventricular peak systolic pressure and EDP. Cardiac temperature was maintained throughout the experiment by submerging the hearts in 37 ° C buffer which was allowed to accumulate in a stoppered, heated chamber. In another series of hearts, the effect of 5HT on the severity of ischemia was determined. […] Vehicle (0.1% DMSO) given 10 minutes before ischemia (n = 5). The hearts were subjected to global ischemia as described above and time to contracture determined. Reperfusion function and LDH release were not determined in this group.

O=C(c1ccc(F)cc1)C1CCN(CCn2c(=O)[nH]c3ccccc3c2=O)CC1 [Ketanserin, ketanserin]
Coronary Flow (Post-Drug): 18 ± 1 mL/min/g
HR (Post-Drug): 335±17^a beats/min
LVDP (Post-Drug): 130±2 mmHg
Coronary Flow (Pre-Drug): 18 ± 2 mL/min/g
HR (Pre-Drug): 270±16 beats/min
LVDP (Pre-Drug): 141±4 mmHg
effect on the pro-ischemic effect of 5HT (time to contracture): abolished the pro-ischemic effect of serotonin
effect on the pro-ischemic effect of 5HT (time to contracture) (listed as ketanserin): completely abolished this pro-ischemic effect
